This is an account of results in patent US10604523B2, “1-aryl-4-methyl-[1,2,4]triazolo[4,3-a]quinoxaline derivatives” (Janssen Pharmaceutica NV, priority 2011, dated 2020).

Experiment [1] concerns the target T1, Rat recombinant PDE10A (rPDE10A2) (Rattus norvegicus, UniProt Q9QYJ6).
T1 construct: made in house; host or cells: Sf9 insect cells (baculovirus)
T1 sequence (Q9QYJ6 1-794): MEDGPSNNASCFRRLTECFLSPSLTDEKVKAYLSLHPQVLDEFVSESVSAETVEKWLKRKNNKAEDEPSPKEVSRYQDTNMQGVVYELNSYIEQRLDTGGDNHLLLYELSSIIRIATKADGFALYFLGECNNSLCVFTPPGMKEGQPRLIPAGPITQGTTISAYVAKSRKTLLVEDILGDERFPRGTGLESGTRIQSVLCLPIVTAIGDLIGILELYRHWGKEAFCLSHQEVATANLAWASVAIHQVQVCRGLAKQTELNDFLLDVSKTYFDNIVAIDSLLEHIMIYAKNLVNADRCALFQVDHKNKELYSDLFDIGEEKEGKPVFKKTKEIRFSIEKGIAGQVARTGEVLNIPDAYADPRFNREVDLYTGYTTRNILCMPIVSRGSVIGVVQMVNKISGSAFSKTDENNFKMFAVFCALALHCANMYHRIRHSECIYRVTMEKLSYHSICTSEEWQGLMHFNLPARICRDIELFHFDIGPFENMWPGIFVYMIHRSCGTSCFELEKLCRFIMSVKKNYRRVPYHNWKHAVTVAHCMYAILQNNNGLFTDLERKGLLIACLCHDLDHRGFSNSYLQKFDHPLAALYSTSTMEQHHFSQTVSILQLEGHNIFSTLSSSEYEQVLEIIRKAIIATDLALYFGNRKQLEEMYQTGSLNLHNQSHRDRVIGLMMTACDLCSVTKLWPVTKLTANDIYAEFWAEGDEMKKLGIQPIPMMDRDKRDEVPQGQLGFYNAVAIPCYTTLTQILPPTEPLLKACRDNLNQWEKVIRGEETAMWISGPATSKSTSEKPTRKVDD
The experiment is described as follows: In vitro assay PDE10A (SPA, 3H-cAMP). As to conditions: for IC50: read-out: PIC50 PDE10 (converted). Format: biochemical.

Experiment [2] relates to Apomorphine-induced agitation. As to the kind of experiment: Reversal of Apomorphine-induced Agitation in Rats (APO). It counts as in vivo, rat. The note with it: for PO Max effect (cumulative agitation score over 60 min) / SC Max effect (cumulative agitation score over 60 min): apomorphine 1.0 mg/kg i.v.; for PO LAD (lowest active dose) / SC LAD (lowest active dose): lowest dose at which ≥67% tested animals respond; for SC Dose at max effect / SC Max effect (cumulative agitation score over 60 min) / SC LAD (lowest active dose): subcutaneous route.
Description: Apomorphine (1.0 mg/kg, i.v.)-induced agitation was scored every 5 min over the first hour after injection of apomorphine. The score system was: (3) pronounced, (2) moderate, (1) slight, and (0) absent. […] For the present purpose, the cumulative agitation score over the whole 60-min observation period was used as a measure to describe the maximum effect (Max effect).

Setting [3] is: -log IC50 expressed in mol/L, rPDE10A2, 60 nM cAMP.

Read-outs that look alike come from different tables or passages of the source.

As to `CCCCOc1ccc(F)c(-c2nnc3c(C)nc4ccc(Br)cc4n23)c1` [Compound B-95], in experiment [1], the IC50 was 1740 nM.
The same measure, in the same setting: in the case of `CCCOc1cncc(-c2nnc3c(C)nc4ccc(CNCC)cc4n23)c1` [Compound B-178] it was above 10000 nM.
Regarding `CCNC(=O)c1ccc2nc(C)c3nnc(-c4ccccc4Cl)n3c2c1` [Compound B-10, 1-(2-Chlorophenyl)-N-ethyl-4-methyl[1,2,4]triazolo[4,3-a]quinoxaline-8-carboxamide], in experiment [1] (setting [3]), the IC50 is 21.4 nM. In experiment [2], the PO Dose at Max Effect turned out to be 2.5 mg/kg, the “PO Max effect (cumulative agitation score over 60 min)” value was 21 and the PO LAD (lowest active dose) was above 2.5 mg/kg.
`CCOc1ccc(Cl)c(-c2nnc3c(C)nc4ccc(CN(C)C)cc4n23)c1` [Compound B-142]: the IC50 in experiment [1] is 316 nM. For the same compound, in experiment [2], the SC Dose at max effect was 10 mg/kg, the “SC Max effect (cumulative agitation score over 60 min)” value turned out to be 22 and the SC LAD (lowest active dose) is above 10 mg/kg.
On to `CCNC(=O)c1ccc2nc(C)c3nnc(-c4cnccc4C)n3c2c1` [Compound B-109], for which the IC50 in experiment [1] is 851 nM.
On to `CCNCc1ccc2nc(C)c3nnc(-c4cc(OCC)ccc4Cl)n3c2c1` [Compound B-151a], for which the “PIC50 PDE10” value in experiment [1] (setting [3]) worked out at 6.04.
Take `CCNC(=O)c1ccc2nc(C)c3nnc(-c4ccccc4)n3c2c1` [Compound B-65]: the IC50 in experiment [1] was 251 nM. Besides, in experiment [2], the PO Dose at Max Effect came out at 10 mg/kg, the “PO Max effect (cumulative agitation score over 60 min)” value is 21 and the PO LAD (lowest active dose) is above 10 mg/kg.
`CCN(CC)CCNC(=O)c1ccc2nc(C)c3nnc(-c4ccccc4Cl)n3c2c1` [Compound B-41]: the IC50 in experiment [1] is 44.7 nM. Besides, in experiment [2], the SC Dose at max effect worked out at 10 mg/kg, the “SC Max effect (cumulative agitation score over 60 min)” value was 22 and the SC LAD (lowest active dose) is above 10 mg/kg.
As to `CCNC(=O)c1ccc2nc(C)c3nnc(-c4cccnc4C)n3c2c1` [Compound B-68], the IC50 in experiment [1] (setting [3]) was 178 nM. In addition, in experiment [2], the SC Dose at max effect was 10 mg/kg, the “SC Max effect (cumulative agitation score over 60 min)” value was determined as 22 and the SC LAD (lowest active dose) is above 10 mg/kg.
Regarding `CCOC(=O)c1ccc2nc(C)c3nnc(-c4ccccc4)n3c2c1` [Compound B-2a, Ethyl 4-methyl-1-phenyl[1,2,4]triazolo[4,3-a]quinoxaline-8-carboxylate], the IC50 in experiment [1] (setting [3]) was 295 nM.
On to `CCCCOc1ccc(F)c(-c2nnc3c(C)nc4cc(C#N)ccc4n23)c1` [Compound B-176], for which the IC50 in experiment [1] is above 10000 nM.
For the compound `COCCOc1cncc(-c2nnc3c(C)nc4ccc(CN5CCOCC5)cc4n23)c1` [Compound B-203], the “PIC50 PDE10” value in experiment [1] (setting [3]) amounted to 5.11.
Turning to `Cc1nc2ccc(CNC(C)C)cc2n2c(-c3cncc(OCC4CC4)c3)nnc12` [Compound B-210], the IC50 in experiment [1] is 1450 nM.
In the case of `COc1ccc(Cl)c(-c2nnc3c(C)nc4ccc(CN5CCOCC5)cc4n23)c1` [Compound B-84], the IC50 in experiment [1] (setting [3]) is 105 nM. For the same compound, in experiment [2], the PO Dose at Max Effect was determined as 10 mg/kg, the “PO Max effect (cumulative agitation score over 60 min)” value is on record as 21 and the PO LAD (lowest active dose) is above 10 mg/kg.
As for `Cc1nc2ccc(CN3CCOCC3)cc2n2c(-c3ccc(F)cc3Cl)nnc12` [Compound B-82], the IC50 in experiment [1] is 85.1 nM. In addition, in experiment [2], the SC Dose at max effect came out at 10 mg/kg, the “SC Max effect (cumulative agitation score over 60 min)” value worked out at 9 and the SC LAD (lowest active dose) amounted to 2.5 mg/kg.
As for `CCCCOc1ccc(F)c(-c2nnc3c(C)nc4ccc(C#N)cc4n23)c1` [Compound B-120], the IC50 in experiment [1] is 3550 nM.
For `COc1cncc(-c2nnc3c(C)nc4ccc(CN5CCOCC5)cc4n23)c1` [Compound B-91], the “PIC50 PDE10” value in experiment [1] (setting [3]) is 6.57. In addition, in experiment [2], the SC Dose at max effect came out at 10 mg/kg, the “SC Max effect (cumulative agitation score over 60 min)” value is 21 and the SC LAD (lowest active dose) was above 10 mg/kg.
`CCCCOc1ccc(Cl)c(-c2nnc3c(C)nc4ccc(CNC(C)C)cc4n23)c1` [Compound B-149]: in experiment [1] (setting [3]), the “PIC50 PDE10” value was determined as 5.38.
On to `CCCOc1cncc(-c2nnc3c(C)nc4ccc(CN5CCOCC5)cc4n23)c1` [Compound B-119], for which the “PIC50 PDE10” value in experiment [1] (setting [3]) is on record as 5.21.
Turning to `CCCCOc1cncc(-c2nnc3c(C)nc4ccc(CN5CCOCC5)cc4n23)c1.Cl` [Compound B-17a, 1-(5-Butoxypyridin-3-yl)-4-methyl-8-(morpholin-4-ylmethyl) [1,2,4]triazolo[4,3-a]quinoxaline hydrochloride], in experiment [2], the SC Dose at max effect worked out at 40 mg/kg, the “SC Max effect (cumulative agitation score over 60 min)” value is reported as 23 and the SC LAD (lowest active dose) is above 40 mg/kg.
For the compound `CCNC(=O)c1ccc2nc(C)c3nnc(-c4cncc(OC)c4)n3c2c1` [Compound B-80], the IC50 in experiment [1] was 741 nM.
For `Cc1nc2ccc(CN3CCOCC3)cc2n2c(-c3c(F)cccc3Cl)nnc12` [Compound B-23, 1-(2-Chloro-6-fluorophenyl)-4-methyl-8-(morpholin-4-ylmethyl)[1,2,4]triazolo[4,3-a]quinoxaline], in experiment [2], the SC Dose at max effect was found to be 40 mg/kg, the “SC Max effect (cumulative agitation score over 60 min)” value is listed as 1 and the SC LAD (lowest active dose) is 0.63 mg/kg.
For the compound `CCCOc1ccc(Cl)c(-c2nnc3c(C)nc4ccc(CNCC)cc4n23)c1` [Compound B-111], the IC50 in experiment [1] was 1780 nM.
Consider `CCOC(=O)c1ccc2c(c1)nc(C)c1nnc(-c3ccccc3)n12` [Compound B-2b, Ethyl 4-methyl-1-phenyl[1,2,4]triazolo[4,3-a]quinoxaline-7-carboxylate], for which, in experiment [1] (setting [3]), the “PIC50 PDE10” value stood at 5.57.
On to `Cc1nc2ccc(CNCc3ccccc3)cc2n2c(-c3ccccc3Cl)nnc12` [Compound B-99], for which the “PIC50 PDE10” value in experiment [1] (setting [3]) is on record as 7.3.
Take `CCCCOc1cncc(-c2nnc3c(C)nc4ccc(CNCC)cc4n23)c1` [Compound B-150]: in experiment [1], the IC50 was above 10000 nM.
On to `CCCCOc1cncc(-c2nnc3c(C)nc4ccc(CNC(C)C)cc4n23)c1` [Compound B-153], for which, in experiment [1] (setting [3]), the IC50 is above 10000 nM.
On the same count and under the same terms, in the case of `CCCCOc1cc(-c2nnc3c(C)nc4ccc(CN5CCOCC5)cc4n23)cnc1Cl` [Compound B-202] it was above 10000 nM.
In the case of `CCCCOc1cncc(-c2nnc3c(C)nc4ccc(CNC)cc4n23)c1` [Compound B-200], the IC50 in experiment [1] was above 10000 nM.
As to `CCNC(=O)c1ccc2nc(C)c3nnc(-c4c(Cl)cccc4Cl)n3c2c1` [Compound B-33], in experiment [1] (setting [3]), the IC50 is 12.3 nM.
For `Cc1nc2ccc(CN3CCOCC3)cc2n2c(-c3cncc(OCC4CC4)c3)nnc12` [Compound B-193], the “PIC50 PDE10” value in experiment [1] (setting [3]) is on record as 5.44.
For the compound `CCNCc1ccc2nc(C)c3nnc(-c4ccccc4Cl)n3c2c1` [Compound B-20, N-{[1-(2-Chlorophenyl)-4-methyl[1,2,4]triazolo[4,3-a]quinoxalin-8-yl]methyl}-ethanamine], in experiment [2], the SC Dose at max effect was 10 mg/kg, the “SC Max effect (cumulative agitation score over 60 min)” value turned out to be 21 and the SC LAD (lowest active dose) was above 10 mg/kg.
In the case of `CCNC(=O)c1ccc2nc(C)c3nnc(-c4cccnc4)n3c2c1` [Compound B-127], the IC50 in experiment [1] (setting [3]) was 1820 nM.
`Cc1nc2ccc(CN(C)C)cc2n2c(-c3cc(OC(C)C)ccc3Cl)nnc12` [Compound B-141]: the “PIC50 PDE10” value in experiment [1] (setting [3]) came out at 5.8.
As for `Cc1nc2ccc(CN3CCOCC3)cc2n2c(-c3ccccc3Cl)nnc12` [Compound B-19, 1-(2-Chlorophenyl)-4-methyl-8-(morpholin-4-ylmethyl)[1,2,4]triazolo[4,3-a]-quinoxaline], in experiment [2], the SC Dose at max effect stood at 5 mg/kg, the “SC Max effect (cumulative agitation score over 60 min)” value turned out to be 14 and the SC LAD (lowest active dose) was 5 mg/kg.
Regarding `CCCCOc1ccc(Cl)c(-c2nnc3c(C)nc4ccc(CNCC)cc4n23)c1` [Compound B-101], the IC50 in experiment [1] is 5500 nM.
With `CCNC(=O)c1ccc2nc(C)c3nnc(-c4cccnc4)n3c2c1` [Compound B-143], the IC50 in experiment [1] (setting [3]) was 1350 nM.
Turning to `CCNCc1ccc2nc(C)c3nnc(-c4cncc(OCC5CC5)c4)n3c2c1` [Compound B-211], the IC50 in experiment [1] (setting [3]) was above 10000 nM.
Consider `Cc1nc2ccc(CN(C)C)cc2n2c(-c3cncc(OCC4CC4)c3)nnc12` [Compound B-205], for which the IC50 in experiment [1] is above 10000 nM.
Consider `CCCCOc1ccc(F)c(-c2nnc3c(C)nc4cc(Br)ccc4n23)c1` [Compound B-175], for which the IC50 in experiment [1] is above 10000 nM.
On to `CCCOc1ccc(Cl)c(-c2nnc3c(C)nc4ccc(Br)cc4n23)c1` [Compound B-92], for which the IC50 in experiment [1] was 468 nM.
`CCCOc1ccc(Cl)c(-c2nnc3c(C)nc4ccc(CN(C)C)cc4n23)c1` [Compound B-112]: the IC50 in experiment [1] was 1480 nM.
For `CCCCOc1ccc(Cl)c(-c2nnc3c(C)nc4ccc(CNC)cc4n23)c1` [Compound B-192], the “PIC50 PDE10” value in experiment [1] (setting [3]) turned out to be 5.04.
Still for that read-out and setting: the figure for `CCNCc1ccc2nc(C)c3nnc(-c4cc(OC(C)C)ccc4Cl)n3c2c1` [Compound B-148] is 5.07; for `Cc1nc2ccc(CN3CCOCC3)cc2n2c(-c3cc(OC(C)C)ccc3Cl)nnc12` [Compound B-58] it is 5.73.
